Results on 31 compounds are retold here after ChEMBL document CHEMBL3792384, “Design, synthesis and bioactivity of novel phthalimide derivatives as acetylcholinesterase inhibitors” (Bioorg Med Chem Lett, 2016).

SMILES strings stand for the structures. Calls of active or inactive are those of the source. The rule behind the calls is not given here.

Cholinesterase (Equus caballus), sequence (P81908 whole entry): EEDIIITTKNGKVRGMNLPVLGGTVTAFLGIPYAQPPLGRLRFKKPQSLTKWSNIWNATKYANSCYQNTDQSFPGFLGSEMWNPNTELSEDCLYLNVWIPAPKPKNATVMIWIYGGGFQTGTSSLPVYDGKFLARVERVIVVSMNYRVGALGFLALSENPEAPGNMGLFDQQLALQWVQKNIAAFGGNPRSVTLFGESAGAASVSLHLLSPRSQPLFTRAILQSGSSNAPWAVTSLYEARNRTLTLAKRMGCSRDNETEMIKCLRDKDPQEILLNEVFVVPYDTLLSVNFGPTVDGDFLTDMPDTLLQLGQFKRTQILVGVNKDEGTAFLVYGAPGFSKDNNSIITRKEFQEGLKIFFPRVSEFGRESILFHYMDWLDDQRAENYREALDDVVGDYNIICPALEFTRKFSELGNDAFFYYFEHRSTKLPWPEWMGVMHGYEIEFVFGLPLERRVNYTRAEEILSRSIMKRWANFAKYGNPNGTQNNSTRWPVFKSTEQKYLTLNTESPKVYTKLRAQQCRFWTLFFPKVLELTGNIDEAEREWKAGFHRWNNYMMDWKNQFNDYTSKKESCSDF
Cholinesterase, sequence (P81908 whole entry): as above

The first experiment concerns the target Cholinesterase (Equus caballus, UniProt P81908). The experiment is described as follows: (§1) Inhibition of equine serum BChE using butyrylthiocholine iodide as substrate by Ellman's method-based spectrophotometric analysis. A general note: In Ellman's method for cholinesterases, released thiocholine reacts with DTNB.
For orientation: IC50 means the concentration needed to halve the response being measured. The low end stands for greater potency, the high end for weaker potency. Regarding `O=C1c2ccccc2C(=O)N1CCCCCCCCCN1CCN(Cc2ccccc2)CC1`, the IC50 was determined as 33.1 nM.

The next experiment addresses Cholinesterase (Equus caballus) (UniProt P81908). Described as §1.
Regarding `O=C1c2ccccc2C(=O)N1CCCCCCCCN1CCN(Cc2ccccc2)CC1`, the inhibition entry was “Active”.

For another experiment, the target named is Acetylcholinesterase (Electrophorus electricus, UniProt O42275). The experiment in a line: Inhibition of electric eel AChE preincubated for 15 mins followed by addition of acetylthiocholine iodide substrate by Ellman's method-based spectrophotometric analysis.
Acetylcholinesterase, sequence (O42275 whole entry): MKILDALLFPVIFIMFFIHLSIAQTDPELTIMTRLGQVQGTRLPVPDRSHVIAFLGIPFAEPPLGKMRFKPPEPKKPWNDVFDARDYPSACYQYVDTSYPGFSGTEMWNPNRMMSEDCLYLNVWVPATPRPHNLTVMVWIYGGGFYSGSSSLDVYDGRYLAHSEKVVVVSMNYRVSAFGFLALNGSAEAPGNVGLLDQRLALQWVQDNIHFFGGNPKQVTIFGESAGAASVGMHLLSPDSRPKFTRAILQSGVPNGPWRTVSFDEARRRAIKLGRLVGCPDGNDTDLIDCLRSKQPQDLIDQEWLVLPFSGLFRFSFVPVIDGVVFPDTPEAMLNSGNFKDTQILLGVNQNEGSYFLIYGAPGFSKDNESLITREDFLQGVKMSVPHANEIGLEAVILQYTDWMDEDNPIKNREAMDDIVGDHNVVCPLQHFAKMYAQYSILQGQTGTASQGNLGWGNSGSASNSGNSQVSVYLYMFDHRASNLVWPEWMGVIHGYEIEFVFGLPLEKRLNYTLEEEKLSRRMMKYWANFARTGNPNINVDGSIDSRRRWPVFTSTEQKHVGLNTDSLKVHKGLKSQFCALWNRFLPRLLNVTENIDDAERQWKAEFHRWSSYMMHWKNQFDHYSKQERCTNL
As to `O=C1c2ccccc2C(=O)N1CCCCCN1CCN(Cc2ccccc2)CC1`, the IC50 came out at 35.4 nM.
Still for that read-out and setting: in the case of `COc1ccc(CN2CCN(CCCCCCCN3C(=O)c4ccccc4C3=O)CC2)cc1` it was 448 nM.
`COc1ccc(CN2CCN(CCCCCCCCCCN3C(=O)c4ccccc4C3=O)CC2)cc1` came in with an IC50 of 712 nM.
The same measure, in the same setting: for `O=C1c2ccccc2C(=O)N1CCCCCCCN1CCN(Cc2ccc(Cl)cc2)CC1` the value was 655 nM; for `O=C1c2ccccc2C(=O)N1CCCCCCCCCCN1CCN(Cc2ccccc2)CC1`, 350 nM; for `O=C1c2ccccc2C(=O)N1CCCCCCN1CCN(Cc2ccccc2)CC1`, 100 nM.
On the same count and under the same terms, for `COc1ccc(CN2CCN(CCCCCCN3C(=O)c4ccccc4C3=O)CC2)cc1` the value was 687 nM; for `O=C1c2ccccc2C(=O)N1CCCCCCCCCN1CCN(Cc2ccccc2)CC1`, 40.7 nM.
The same measure, in the same setting: in the case of `O=C1c2ccccc2C(=O)N1CCN1CCN(Cc2ccccc2)CC1` it was 91.1 nM.
As to `COc1ccc(CN2CCN(CCCCCN3C(=O)c4ccccc4C3=O)CC2)cc1`, half-maximal inhibition (IC50) required 548 nM.
The same measure, in the same setting: for `O=C1c2ccccc2C(=O)N1CCCCN1CCN(Cc2ccccc2)CC1` the value was 18.4 nM; for `O=C1c2ccccc2C(=O)N1C/C=C/CN1CCN(Cc2ccc(Cl)cc2)CC1`, 384 nM.
In the case of `COc1ccc(CN2CCN(CCCCCCCCN3C(=O)c4ccccc4C3=O)CC2)cc1`, it took 699 nM to reach half-maximal inhibition (IC50).
The same measure, in the same setting: in the case of `O=C1c2ccccc2C(=O)N1CCCCCCCCN1CCN(Cc2ccccc2)CC1` it was 204 nM; in that of `O=C1c2ccccc2C(=O)N1CCCCCN1CCN(Cc2ccc(Cl)cc2)CC1`, 720 nM; in that of `O=C1c2ccccc2C(=O)N1CCCCCCCN1CCN(Cc2ccccc2)CC1`, 53.8 nM.
In turn, `O=C1c2ccccc2C(=O)N1CCN1CCN(Cc2ccc(Cl)cc2)CC1` gave an IC50 of 1100 nM.
Same read-out and setting: in the case of `O=C1c2ccccc2C(=O)N1CCCCCCCCCCN1CCN(Cc2ccc(Cl)cc2)CC1` it was 1260 nM; in that of `COc1cc2c(cc1OCCCN1CCN(c3ccccc3OC)CC1)C(C)C(C)C(=O)O2` (stereo not drawn), 36 nM; in that of `O=C1c2ccccc2C(=O)N1C/C=C/CN1CCN(Cc2ccccc2)CC1`, 13.6 nM.
In turn, `COc1ccc(CN2CCN(CCCCN3C(=O)c4ccccc4C3=O)CC2)cc1` gave an IC50 of 403 nM. This IC50 lies about 30-fold higher than the previous one.
On the same count and under the same terms, in the case of `O=C1c2ccccc2C(=O)N1CCCN1CCN(Cc2ccc(Cl)cc2)CC1` it was 1430 nM; in that of `O=C1c2ccccc2C(=O)N1CCCCN1CCN(Cc2ccc(Cl)cc2)CC1`, 1420 nM.
Same read-out and setting: for `COc1ccc(CN2CCN(CCCCCCCCCN3C(=O)c4ccccc4C3=O)CC2)cc1` the value was 657 nM.
On the same count and under the same terms, in the case of `O=C1c2ccccc2C(=O)N1CCCN1CCN(Cc2ccccc2)CC1` it was 123 nM; in that of `O=C1c2ccccc2C(=O)N1CCCCCCN1CCN(Cc2ccc(Cl)cc2)CC1`, 389 nM.
The compound `O=C1c2ccccc2C(=O)N1CCCCCCCCN1CCN(Cc2ccc(Cl)cc2)CC1` gave a concentration for half-maximal inhibition (IC50) of 440 nM. The IC50 values of the last two compounds are within 1.5-fold of each other.
Same read-out and setting: in the case of `COc1ccc(CN2CCN(CCCN3C(=O)c4ccccc4C3=O)CC2)cc1` it was 508 nM; in that of `COc1ccc(CN2CCN(CCN3C(=O)c4ccccc4C3=O)CC2)cc1`, 466 nM; in that of `COc1ccc(CN2CCN(C/C=C/CN3C(=O)c4ccccc4C3=O)CC2)cc1`, 489 nM.
On the same count and under the same terms, for `O=C1c2ccccc2C(=O)N1CCCCCCCCCN1CCN(Cc2ccc(Cl)cc2)CC1` the value was 644 nM.
